This note sets out measurements from US6358947B1 (American Home Products Corporation, priority 1999, dated 2002).

pIC50: −log10 of the molar value.

Holding throughout (assay type): cell-based
Assay [1] concerns the target T1, human PR (Homo sapiens, UniProt P06401).
T1 sequence (P06401 1-933): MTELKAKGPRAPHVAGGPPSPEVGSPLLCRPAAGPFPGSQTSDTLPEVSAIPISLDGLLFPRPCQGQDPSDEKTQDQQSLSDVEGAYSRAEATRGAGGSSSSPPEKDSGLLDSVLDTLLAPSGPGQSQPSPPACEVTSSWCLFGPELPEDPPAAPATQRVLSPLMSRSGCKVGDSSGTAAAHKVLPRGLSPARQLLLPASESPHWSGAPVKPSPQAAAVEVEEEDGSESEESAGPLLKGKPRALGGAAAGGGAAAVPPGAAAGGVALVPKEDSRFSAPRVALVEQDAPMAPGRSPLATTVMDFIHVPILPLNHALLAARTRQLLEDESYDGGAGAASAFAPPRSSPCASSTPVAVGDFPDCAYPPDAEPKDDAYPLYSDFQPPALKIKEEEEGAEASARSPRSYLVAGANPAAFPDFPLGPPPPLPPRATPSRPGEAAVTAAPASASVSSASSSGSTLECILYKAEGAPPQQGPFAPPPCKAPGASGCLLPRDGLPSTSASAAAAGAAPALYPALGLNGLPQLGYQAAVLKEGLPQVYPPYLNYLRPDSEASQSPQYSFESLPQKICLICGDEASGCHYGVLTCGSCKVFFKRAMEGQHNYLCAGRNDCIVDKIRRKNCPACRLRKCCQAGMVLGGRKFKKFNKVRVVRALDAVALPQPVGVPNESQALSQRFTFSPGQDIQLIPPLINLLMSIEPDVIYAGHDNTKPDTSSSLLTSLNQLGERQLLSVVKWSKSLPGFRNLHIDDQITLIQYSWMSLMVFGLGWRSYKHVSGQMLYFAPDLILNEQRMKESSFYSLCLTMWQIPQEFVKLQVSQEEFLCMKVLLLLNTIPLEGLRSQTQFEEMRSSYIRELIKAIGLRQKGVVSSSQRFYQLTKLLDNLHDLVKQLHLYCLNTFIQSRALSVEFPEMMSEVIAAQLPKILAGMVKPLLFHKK
The assay can be described thus: Cotransfection assay, PR antagonist, CV-1 cells. Particulars: for pIC50: Table 1, read-out: PR Antagonist CV-1 Cells Potency; for PR Antagonist CV-1 Cells Efficacy: percent maximal response relative to reference antagonist.
Text: (§1) The cotransfection assay provides a method for identifying functional agonists and partial agonists that mimic, or antagonists that inhibit, the effect of native hormones, and for quantifying their activity for responsive intracellular receptor (IR) proteins. In this regard, the cotransfection assay mimics an in vivo system in the laboratory. Importantly, activity in the cotransfection assay correlates very well with known in vivo activity, such that the cotransfection assay functions as a qualitative and quantitative predictor of a tested compound's in vivo pharmacology.
(§2) In the cotransfection assay, a cloned cDNA for an IR (e.g., human PR, AR or GR) under the control of a constitutive promoter (e.g., the SV 40 promoter) is introduced by transfection (a procedure to induce cells to take up foreign genes) into a background cell substantially devoid of endogenous IRs. This introduced gene directs the recipient cells to make the IR protein of interest. A second gene is also introduced (cotransfected) into the same cells in conjunction with the IR gene. This second gene, comprising the cDNA for a reporter protein, such as firefly luciferase (LUC), is controlled by an appropriate hormone responsive promoter containing a hormone response element (HRE). This reporter plasmid functions as a reporter for the transcription-modulating activity of the target IR. Thus, the reporter acts as a surrogate for the products (mRNA, then protein) normally expressed by a gene under control of the target receptor and its native hormone.
(§3) The cotransfection assay can detect small molecule agonists or antagonists of target IRs. Exposing the transfected cells to an agonist ligand compound increases reporter activity in the transfected cells. This activity can be conveniently measured, e.g., by increasing luciferase production, which reflects compound-dependent, IR-mediated increases in reporter transcription. […] Increasing concentrations of a suspected antagonist will decrease the reporter signal (e.g., luciferase production). The cotransfection assay is therefore useful to detect both agonists and antagonists of specific IRs. Furthermore, it determines not only whether a compound interacts with a particular IR, but whether this interaction mimics (agonizes) or blocks (antagonizes) the effects of the native regulatory molecules on target gene expression, as well as the specificity and strength of this interaction.

Assay [2] deals with T2, hAR (Homo sapiens, UniProt P10275).
T2 sequence (P10275 1-920): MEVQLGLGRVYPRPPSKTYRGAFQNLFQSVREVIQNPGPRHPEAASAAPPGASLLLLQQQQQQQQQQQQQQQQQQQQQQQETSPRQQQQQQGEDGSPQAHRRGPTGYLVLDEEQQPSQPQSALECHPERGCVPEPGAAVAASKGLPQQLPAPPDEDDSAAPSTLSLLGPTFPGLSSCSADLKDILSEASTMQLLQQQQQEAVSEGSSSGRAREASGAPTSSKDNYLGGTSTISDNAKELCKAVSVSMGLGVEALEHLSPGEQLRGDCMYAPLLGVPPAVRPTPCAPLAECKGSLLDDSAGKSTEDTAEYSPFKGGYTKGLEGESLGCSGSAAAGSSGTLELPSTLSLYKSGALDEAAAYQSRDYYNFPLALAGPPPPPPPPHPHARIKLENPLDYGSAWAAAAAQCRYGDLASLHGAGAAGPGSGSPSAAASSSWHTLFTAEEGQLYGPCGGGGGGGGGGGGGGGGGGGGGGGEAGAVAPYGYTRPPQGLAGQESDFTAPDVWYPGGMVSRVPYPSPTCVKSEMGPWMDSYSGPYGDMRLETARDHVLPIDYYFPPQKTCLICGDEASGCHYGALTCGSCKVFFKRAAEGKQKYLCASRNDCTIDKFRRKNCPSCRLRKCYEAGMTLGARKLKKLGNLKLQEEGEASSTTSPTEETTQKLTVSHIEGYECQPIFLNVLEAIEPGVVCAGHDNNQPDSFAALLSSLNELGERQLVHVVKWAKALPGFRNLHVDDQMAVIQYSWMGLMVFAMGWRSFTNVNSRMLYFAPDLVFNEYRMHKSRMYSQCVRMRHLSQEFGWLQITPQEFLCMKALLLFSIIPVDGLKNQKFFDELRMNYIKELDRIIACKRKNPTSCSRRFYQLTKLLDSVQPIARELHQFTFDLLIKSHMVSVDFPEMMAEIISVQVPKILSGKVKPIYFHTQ
Put plainly: Cotransfection assay, AR antagonist. Particulars: read-out: AR Potency Antag.
Text: as §1, §2, §3

Assay [3] has as its target T3, hGR (Homo sapiens, UniProt P04150).
T3 sequence (P04150 1-777): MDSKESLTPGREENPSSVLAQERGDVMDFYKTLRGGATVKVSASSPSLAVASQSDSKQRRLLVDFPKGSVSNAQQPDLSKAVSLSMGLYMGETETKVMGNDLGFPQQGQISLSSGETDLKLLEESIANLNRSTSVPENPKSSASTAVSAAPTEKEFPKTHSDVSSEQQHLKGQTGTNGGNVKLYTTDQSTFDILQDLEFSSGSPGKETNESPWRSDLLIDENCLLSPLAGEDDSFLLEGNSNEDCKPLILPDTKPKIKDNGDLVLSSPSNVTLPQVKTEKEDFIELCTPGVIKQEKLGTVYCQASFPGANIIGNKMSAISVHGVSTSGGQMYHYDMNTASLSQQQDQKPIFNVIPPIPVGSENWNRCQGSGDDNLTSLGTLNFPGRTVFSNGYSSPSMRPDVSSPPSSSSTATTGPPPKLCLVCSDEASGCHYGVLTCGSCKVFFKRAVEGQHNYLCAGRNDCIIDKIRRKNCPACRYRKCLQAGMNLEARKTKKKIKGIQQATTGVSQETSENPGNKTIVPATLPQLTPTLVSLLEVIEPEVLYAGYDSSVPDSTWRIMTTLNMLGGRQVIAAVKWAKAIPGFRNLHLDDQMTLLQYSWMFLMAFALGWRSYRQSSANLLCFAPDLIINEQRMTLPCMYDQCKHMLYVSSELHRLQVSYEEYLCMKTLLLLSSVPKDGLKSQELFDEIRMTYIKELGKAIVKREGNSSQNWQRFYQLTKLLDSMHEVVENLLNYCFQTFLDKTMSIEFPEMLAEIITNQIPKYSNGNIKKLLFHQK
The assay can be described thus: Cotransfection assay, GR antagonist. Particulars: read-out: GR Potency Antag.
Text: as §1, §2, §3

Regarding `CC1(C)OC(=O)Nc2ccc3c(c21)COc1c(F)cc(C=NO)cc1-3` [Compound 25, 7-fluoro-9-hydroxyiminomethyl-4,4-dimethyl-5H-chromeno[3,4-f]-1,3-benzo[d]oxazin-2-one], the figures for the pIC50 in assay [1], in assay [2] and in assay [3] were 7.64, 7.00 and < 5.00, respectively. For the same molecule, the “PR Antagonist CV-1 Cells Efficacy” value in assay [1] worked out at 87%.

With `CC1(C)OC(=O)Nc2ccc3c(c21)COc1c(F)cc(Br)cc1-3` [Compound 20, 9-Bromo-7-fluoro-4,4-dimethyl-5H-chromeno[3,4-f]-1,3-benzo[d]oxazin-2-one], the figures for the pIC50 in assay [1], in assay [2] and in assay [3] were 7.70, 6.00 and < 5.00, respectively. The “PR Antagonist CV-1 Cells Efficacy” value in assay [1] is 80%.

Regarding `CC1(C)OC(=O)Nc2ccc3c(c21)COc1c(F)cccc1-3` [Compound 14, 7-Fluoro-4,4-dimethyl-5H-chromeno[3,4-f]-1,3-benzo[d]oxazin-2-one], the pIC50 in assay [1] is 7.60; in assay [2], 6.70; in assay [3], < 5.00. Besides, the “PR Antagonist CV-1 Cells Efficacy” value in assay [1] turned out to be 95%.

In the case of `CC1(C)OC(=O)Nc2ccc3c(c21)COc1c(F)cc(C#N)cc1-3` [Compound 26, 9-cyano-7-fluoro-4,4-dimethyl-5H-chromeno[3,4-f]-1,3-benzo[d]oxazin-2-one], the values for the pIC50 in assay [1], in assay [2] and in assay [3] were 7.80, 6.52 and < 5.00, respectively. Also, the “PR Antagonist CV-1 Cells Efficacy” value in assay [1] turned out to be 68%.

For the molecule `CC1(C)OC(=O)Nc2ccc3c(c21)COc1c(F)cc(C=O)cc1-3` [Compound 24, 7-fluoro-9-formyl-4,4-dimethyl-5H-chromeno[3,4-f]-1,3-benzo[d]oxazin-2-one], the pIC50 in assay [1] was 7.01; in assay [2], 6.89; in assay [3] it was < 5.00. In addition, the “PR Antagonist CV-1 Cells Efficacy” value in assay [1] amounted to 84%.
